Patent US12077503B2, “Substituted cyclic amides and their use as herbicides” (FMC CORPORATION, priority 2015, dated 2024)

What was measured:
Type in all cases: in vivo
Kochia (Kochia scoparia) [1] = experiment: Test A preemergence; settings: Bassia scoparia, pre-emergence, 240 h, preemergence, 0 to 100 scale where 0 is no effect and 100 is complete control, read-out: Kochia plant response rating; for pest or weed control at 125 g/ha: 125 g ai/ha, approx. 10 d; for pest or weed control at 500 g/ha: 500 g ai/ha
How it was run: (§1)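 Compounds were formulated in a non-phytotoxic solvent mixture with surfactant and applied as a preemergence directed soil spray after seeding, or sprayed postemergence over plants 2 to 10 cm tall at the one- to two-leaf stage. Evaluation after about 10 d compared treated with untreated controls, using a scale from 0 (no effect) to 100 (complete control).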

[2] = tested on: barnyardgrass (Echinochloa crus-galli); experiment: Test A preemergence; settings: Echinochloa crus-galli, pre-emergence, 240 h, preemergence, read-out: Barnyardgrass plant response rating; for pest or weed control at 125 g/ha: 125 g ai/ha, 0 to 100 scale where 0 is no effect and 100 is complete control, approx. 10 d; for pest or weed control at 500 g/ha: 500 g ai/ha, visual injury rating about 10 d after treatment, 0 to 100 scale (0 no effect, 100 complete control)
How it was run: as §1

[3] = tested on: giant foxtail (Setaria faberii); experiment: Test A preemergence; settings: Setaria faberi, pre-emergence, 240 h, preemergence, 0 to 100 scale where 0 is no effect and 100 is complete control, read-out: Foxtail, Giant plant response rating; for pest or weed control at 125 g/ha: 125 g ai/ha, approx. 10 d; for pest or weed control at 500 g/ha: 500 g ai/ha
How it was run: as §1

[4] = tested on: pigweed (Amaranthus retroflexus); experiment: Test A preemergence; settings: Amaranthus retroflexus, pre-emergence, 240 h, preemergence, 0 to 100 scale where 0 is no effect and 100 is complete control, read-out: Pigweed plant response rating; for pest or weed control at 125 g/ha: 125 g ai/ha, approx. 10 d; for pest or weed control at 500 g/ha: 500 g ai/ha
[5] = tested on: ragweed (common ragweed, Ambrosia elatior); experiment: Test A preemergence; settings: Ambrosia artemisiifolia, pre-emergence, 240 h, preemergence, 0 to 100 scale where 0 is no effect and 100 is complete control, read-out: Ragweed plant response rating; for pest or weed control at 125 g/ha: 125 g ai/ha, approx. 10 d; for pest or weed control at 500 g/ha: 500 g ai/ha
How it was run: as §1

[6] = tested on: ryegrass, Italian (Italian ryegrass, Lolium multiflorum); experiment: Test A preemergence; settings: Lolium multiflorum, pre-emergence, 240 h, preemergence, 0 to 100 scale where 0 is no effect and 100 is complete control, read-out: Ryegrass, Italian plant response rating; for pest or weed control at 125 g/ha: 125 g ai/ha, approx. 10 d; for pest or weed control at 500 g/ha: 500 g ai/ha
How it was run: as §1

Kochia (Kochia scoparia) [7] = experiment: Test A postemergence; settings: Bassia scoparia, post-emergence, 240 h, postemergence, read-out: Kochia plant response rating; for pest or weed control at 125 g/ha: 125 g ai/ha, visual injury on 0 to 100 scale (0 no effect, 100 complete control), approx. 10 d; for pest or weed control at 500 g/ha: 500 g ai/ha, 0 to 100 scale, 0 is no effect, 100 is complete control
How it was run: as §1

[8] = tested on: barnyardgrass (Echinochloa crus-galli); experiment: Test A postemergence; settings: Echinochloa crus-galli, post-emergence, 240 h, postemergence, read-out: Barnyardgrass plant response rating; for pest or weed control at 125 g/ha: 125 g ai/ha, visual injury on 0 to 100 scale (0 no effect, 100 complete control), approx. 10 d; for pest or weed control at 500 g/ha: 500 g ai/ha, 0 to 100 scale, 0 is no effect, 100 is complete control
How it was run: as §1

[9] = tested on: blackgrass (Alopecurus myosuroides); experiment: Test A postemergence; settings: Alopecurus myosuroides, post-emergence, 240 h, postemergence, read-out: Blackgrass plant response rating; for pest or weed control at 125 g/ha: 125 g ai/ha, visual injury on 0 to 100 scale (0 no effect, 100 complete control), approx. 10 d; for pest or weed control at 500 g/ha: 500 g ai/ha, 0 to 100 scale, 0 is no effect, 100 is complete control
How it was run: as §1

[10] = tested on: pigweed (Amaranthus retroflexus); experiment: Test A postemergence; settings: Amaranthus retroflexus, post-emergence, 240 h, postemergence, read-out: Pigweed plant response rating; for pest or weed control at 125 g/ha: 125 g ai/ha, visual injury on 0 to 100 scale (0 no effect, 100 complete control), approx. 10 d; for pest or weed control at 500 g/ha: 500 g ai/ha, 0 to 100 scale, 0 is no effect, 100 is complete control
How it was run: as §1

[11] = tested on: barnyardgrass (Echinochloa crus-galli); experiment: Test B flooded paddy test; settings: Echinochloa crus-galli, 250 g ai/ha, Flood; 0 to 100 scale where 0 is no effect and 100 is complete control; read-out: Barnyardgrass plant response rating
How it was run: (§2)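 Greenhouse paddy pots with 2-leaf stage plants received compound by direct addition to floodwater 3 cm deep, kept at that level. Scored visually at 13–15 d versus controls (0 no effect; 100 complete control).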

[12] = tested on: ducksalad (Heteranthera limosa); experiment: Test B flooded paddy test; settings: Heteranthera limosa, 250 g ai/ha, Flood; 0 to 100 scale where 0 is no effect and 100 is complete control; read-out: Ducksalad plant response rating
How it was run: as §2

rice (Oryra sativa) = experiment: Test B flooded paddy test; settings: Oryza sativa, 250 g ai/ha, Flood; 0 to 100 scale where 0 is no effect and 100 is complete control; read-out: Rice plant response rating
How it was run: as §2

[13] = tested on: sedge, umbrella (small-flower umbrella sedge, Cyperus difformis); experiment: Test B flooded paddy test; settings: Cyperus difformis, 250 g ai/ha, Flood; 0 to 100 scale where 0 is no effect and 100 is complete control; read-out: Sedge, Umbrella plant response rating
How it was run: as §2

## O=C1NC[C@H](c2cscn2)[C@H]1C(=O)Nc1cccc(F)c1F [Compound 1111]
Kochia (Kochia scoparia) [1]
  pest or weed control at 125 g/ha: 0%
  pest or weed control at 500 g/ha: 0%
[2]
  pest or weed control at 125 g/ha: 0%
  pest or weed control at 500 g/ha: 0%
[3]
  pest or weed control at 125 g/ha: 0%
  pest or weed control at 500 g/ha: 0%
[4]
  pest or weed control at 125 g/ha: 0%
  pest or weed control at 500 g/ha: 0%
[5]
  pest or weed control at 125 g/ha: 0%
  pest or weed control at 500 g/ha: 0%
[6]
  pest or weed control at 125 g/ha: 0%
  pest or weed control at 500 g/ha: 20%
Kochia (Kochia scoparia) [7]
  pest or weed control at 125 g/ha: 0%
  pest or weed control at 500 g/ha: 0%
[8]
  pest or weed control at 125 g/ha: 0%
  pest or weed control at 500 g/ha: 0%
[9]
  pest or weed control at 125 g/ha: 0%
  pest or weed control at 500 g/ha: 0%
[10]
  pest or weed control at 125 g/ha: 0%
  pest or weed control at 500 g/ha: 0%
[11]
  pest or weed control at 250 g/ha: 20%
[12]
  pest or weed control at 250 g/ha: 70%
Rice (Oryra sativa)
  pest or weed control at 250 g/ha: 0%
[13]
  pest or weed control at 250 g/ha: 0%

## O=C1NC[C@H](c2cc(C(F)F)cs2)[C@H]1C(=O)Nc1ccccc1F [Compound 1116]
Kochia (Kochia scoparia) [1]
  pest or weed control at 125 g/ha: 0%
  pest or weed control at 500 g/ha: 30%
[2]
  pest or weed control at 125 g/ha: 90%
  pest or weed control at 500 g/ha: 90%
[3]
  pest or weed control at 125 g/ha: 20%
  pest or weed control at 500 g/ha: 90%
[4]
  pest or weed control at 125 g/ha: 0%
  pest or weed control at 500 g/ha: 20%
[5]
  pest or weed control at 125 g/ha: 0%
  pest or weed control at 500 g/ha: 20%
[6]
  pest or weed control at 125 g/ha: 0%
  pest or weed control at 500 g/ha: 20%
Kochia (Kochia scoparia) [7]
  pest or weed control at 125 g/ha: 0%
  pest or weed control at 500 g/ha: 30%
[8]
  pest or weed control at 125 g/ha: 30%
  pest or weed control at 500 g/ha: 60%
[9]
  pest or weed control at 125 g/ha: 0%
  pest or weed control at 500 g/ha: 30%
[10]
  pest or weed control at 125 g/ha: 0%
  pest or weed control at 500 g/ha: 0%
[11]
  pest or weed control at 250 g/ha: 50%
[12]
  pest or weed control at 250 g/ha: 100%
Rice (Oryra sativa)
  pest or weed control at 250 g/ha: 20%
[13]
  pest or weed control at 250 g/ha: 75%

## O=C1NC[C@H](c2cc(C(F)F)cs2)[C@H]1C(=O)Nc1cccc(F)c1F [Compound 1117]
Kochia (Kochia scoparia) [1]
  pest or weed control at 125 g/ha: 40%
  pest or weed control at 500 g/ha: 70%
[2]
  pest or weed control at 125 g/ha: 90%
  pest or weed control at 500 g/ha: 90%
[3]
  pest or weed control at 125 g/ha: 50%
  pest or weed control at 500 g/ha: 90%
[4]
  pest or weed control at 125 g/ha: 0%
  pest or weed control at 500 g/ha: 0%
[5]
  pest or weed control at 125 g/ha: 20%
  pest or weed control at 500 g/ha: 70%
[6]
  pest or weed control at 125 g/ha: 0%
  pest or weed control at 500 g/ha: 60%
Kochia (Kochia scoparia) [7]
  pest or weed control at 125 g/ha: 20%
  pest or weed control at 500 g/ha: 40%
[8]
  pest or weed control at 125 g/ha: 80%
  pest or weed control at 500 g/ha: 90%
[9]
  pest or weed control at 125 g/ha: 0%
  pest or weed control at 500 g/ha: 40%
[10]
  pest or weed control at 125 g/ha: 0%
  pest or weed control at 500 g/ha: 0%
[11]
  pest or weed control at 250 g/ha: 60%
[12]
  pest or weed control at 250 g/ha: 100%
Rice (Oryra sativa)
  pest or weed control at 250 g/ha: 20%
[13]
  pest or weed control at 250 g/ha: 0%

## CN1C[C@H](c2csc(C(F)F)c2)[C@@H](C(=O)Nc2cccc(F)c2F)C1=O [Compound 1122]
Kochia (Kochia scoparia) [1]
  pest or weed control at 125 g/ha: 60%
  pest or weed control at 500 g/ha: 70%
[2]
  pest or weed control at 125 g/ha: 90%
  pest or weed control at 500 g/ha: 90%
[3]
  pest or weed control at 125 g/ha: 90%
  pest or weed control at 500 g/ha: 90%
[4]
  pest or weed control at 125 g/ha: 30%
  pest or weed control at 500 g/ha: 70%
[5]
  pest or weed control at 125 g/ha: 70%
  pest or weed control at 500 g/ha: 80%
[6]
  pest or weed control at 125 g/ha: 70%
  pest or weed control at 500 g/ha: 90%
Kochia (Kochia scoparia) [7]
  pest or weed control at 125 g/ha: 60%
  pest or weed control at 500 g/ha: 60%
[8]
  pest or weed control at 125 g/ha: 90%
  pest or weed control at 500 g/ha: 90%
[9]
  pest or weed control at 125 g/ha: 40%
  pest or weed control at 500 g/ha: 60%
[10]
  pest or weed control at 125 g/ha: 20%
  pest or weed control at 500 g/ha: 40%
[11]
  pest or weed control at 250 g/ha: 70%
[12]
  pest or weed control at 250 g/ha: 100%
Rice (Oryra sativa)
  pest or weed control at 250 g/ha: 25%
[13]
  pest or weed control at 250 g/ha: 30%

## CN1C[C@H](c2csc(C(F)F)c2)[C@@H](C(=O)Nc2ccccc2F)C1=O [Compound 1123]
Kochia (Kochia scoparia) [1]
  pest or weed control at 125 g/ha: 60%
  pest or weed control at 500 g/ha: 80%
[2]
  pest or weed control at 125 g/ha: 90%
  pest or weed control at 500 g/ha: 90%
[3]
  pest or weed control at 125 g/ha: 90%
  pest or weed control at 500 g/ha: 90%
[4]
  pest or weed control at 125 g/ha: 0%
  pest or weed control at 500 g/ha: 50%
[5]
  pest or weed control at 125 g/ha: 20%
  pest or weed control at 500 g/ha: 60%
[6]
  pest or weed control at 125 g/ha: 40%
  pest or weed control at 500 g/ha: 60%
Kochia (Kochia scoparia) [7]
  pest or weed control at 125 g/ha: 60%
  pest or weed control at 500 g/ha: 70%
[8]
  pest or weed control at 125 g/ha: 90%
  pest or weed control at 500 g/ha: 90%
[9]
  pest or weed control at 125 g/ha: 30%
  pest or weed control at 500 g/ha: 80%
[10]
  pest or weed control at 125 g/ha: 0%
  pest or weed control at 500 g/ha: 20%
[11]
  pest or weed control at 250 g/ha: 70%
[12]
  pest or weed control at 250 g/ha: 100%
Rice (Oryra sativa)
  pest or weed control at 250 g/ha: 25%
[13]
  pest or weed control at 250 g/ha: 0%
